Measurements: PubChem BioAssay AID330 (DTP/NCI, 2004)
Where “and” joins values, the source holds several entries; their conditions need not be identical. Equal values may be shown once. Toxic doses and inconclusive results are not listed.

Tested on: P388 leukemia ip, CD2F1 mice, survival T/C
Test: NCI In Vivo Anticancer Drug Screen. Data for tumor model P388 Leukemia (intraperitoneal) in CD2F1 (CDF1) mice
Settings: endpoint: median survival time, higher = longer survival
How it was run: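 Mice carrying the transplanted tumor received test compound or vehicle. Survival was recorded in each group, and the value is the treated-group measurement divided by that of the vehicle-treated control group.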

[1] = dose: 50.0 mg/kg/injection, schedule: Q01DX005 (ip), vehicle: saline with Tween-80
[2] = dose: 100.0 mg/kg/injection, schedule: Q01DX005 (ip), vehicle: saline with Tween-80
[3] = dose: 200.0 mg/kg/injection, schedule: Q01DX005 (ip), vehicle: saline with Tween-80
[4] = dose: 60.0 mg/kg/injection, schedule: Q01DX005 (ip), vehicle: Klucel (hydroxypropylcellulose) (HPC)
[5] = dose: 120.0 mg/kg/injection, schedule: Q01DX005 (ip), vehicle: Klucel (hydroxypropylcellulose) (HPC)
[6] = dose: 6.25 mg/kg/injection, schedule: Q01DX009 (ip), vehicle: saline
[7] = dose: 12.5 mg/kg/injection, schedule: Q01DX009 (ip), vehicle: saline
[8] = dose: 50.0 mg/kg/injection, schedule: Q01DX005 (ip), vehicle: Klucel (hydroxypropylcellulose) (HPC)
[9] = dose: 100.0 mg/kg/injection, schedule: Q01DX005 (ip), vehicle: Klucel (hydroxypropylcellulose) (HPC)
[10] = dose: 200.0 mg/kg/injection, schedule: Q01DX005 (ip), vehicle: Klucel (hydroxypropylcellulose) (HPC)
[11] = dose: 60.0 mg/kg/injection, schedule: Q01DX005 (ip), vehicle: saline with Tween-80
[12] = dose: 120.0 mg/kg/injection, schedule: Q01DX005 (ip), vehicle: saline with Tween-80
[13] = dose: 240.0 mg/kg/injection, schedule: Q01DX005 (ip), vehicle: saline with Tween-80

COc1ccc(-c2c(C(N)=O)cnc(C)c2C)c(OCc2ccccc2)c1OC
T/C (dose: 0.05 mg/kg/injection, schedule: Q01DX009 (ip), vehicle: water): 104 % of control | T/C (dose: 0.1 mg/kg/injection, schedule: Q01DX009 (ip), vehicle: water): 117 % of control | T/C (dose: 0.2 mg/kg/injection, schedule: Q01DX009 (ip), vehicle: water): 104 % of control | T/C (dose: 0.4 mg/kg/injection, schedule: Q01DX009 (ip), vehicle: water): 103 % of control and 117 % of control | T/C (dose: 0.8 mg/kg/injection, schedule: Q01DX009 (ip), vehicle: water): 106 % of control | T/C (dose: 1.6 mg/kg/injection, schedule: Q01DX009 (ip), vehicle: water): 106 % of control | T/C (dose: 3.2 mg/kg/injection, schedule: Q01DX009 (ip), vehicle: water): 109 % of control | T/C (dose: 6.25 mg/kg/injection, schedule: Q01DX009 (ip), vehicle: other): 98 % of control | T/C (dose: 6.4 mg/kg/injection, schedule: Q01DX009 (ip), vehicle: water): 109 % of control | T/C (dose: 12.5 mg/kg/injection, schedule: Q01DX009 (ip), vehicle: other): 101 % of control | T/C (dose: 25.0 mg/kg/injection, schedule: Q01DX009 (ip), vehicle: other): 103 % of control | T/C (dose: 50.0 mg/kg/injection, schedule: Q01DX009 (ip), vehicle: other): 105 % of control | T/C (dose: 100.0 mg/kg/injection, schedule: Q01DX009 (ip), vehicle: other): 105 % of control | T/C (dose: 200.0 mg/kg/injection, schedule: Q01DX009 (ip), vehicle: other): 104 % of control | T/C (dose: 400.0 mg/kg/injection, schedule: Q01DX009 (ip), vehicle: other): 107 % of control

Cn1c(O)c(N=O)c(=O)n(C)c1=O
T/C (dose: 25.0 mg/kg/injection, schedule: Q01DX009 (ip), vehicle: saline with Tween-80): 105 % of control | T/C (dose: 50.0 mg/kg/injection, schedule: Q01DX009 (ip), vehicle: saline with Tween-80): 100 % of control | T/C (dose: 100.0 mg/kg/injection, schedule: Q01DX009 (ip), vehicle: saline with Tween-80): 111 % of control

COc1ccc(Cc2nnc3nc(OC)c(-c4ccc(OC)cc4)n3n2)cc1
T/C [1]: 108 % of control and 87 % of control | T/C [2]: 108 % of control | T/C [3]: 86 % of control and 98 % of control

Cc1oc2ccccc2c(=O)c1CN1CCN(C)CC1
T/C (dose: 60.0 mg/kg/injection, schedule: Q01DX005 (ip), vehicle: saline): 101 % of control | T/C (dose: 120.0 mg/kg/injection, schedule: Q01DX005 (ip), vehicle: saline): 103 % of control

COc1cc(C(NC(N)=O)c2cc3c(cc2OC(C)=O)OCO3)cc(OC)c1OC (stereo not given)
T/C [4]: 90 % of control | T/C [5]: 86 % of control

CC(CNCCN)C[Si](C)(C)C (stereo not given)
T/C [6]: 95 % of control | T/C [7]: 87 % of control | T/C (dose: 25.0 mg/kg/injection, schedule: Q01DX009 (ip), vehicle: saline): 95 % of control

CC1(O)C2C3C(I)C4C5C3C1C5C42 (stereo not given)
T/C (dose: 100.0 mg/kg/injection, schedule: Q01DX001 (ip), vehicle: Klucel (hydroxypropylcellulose) (HPC)): 92 % of control | T/C (dose: 200.0 mg/kg/injection, schedule: Q01DX001 (ip), vehicle: Klucel (hydroxypropylcellulose) (HPC)): 88 % of control | T/C (dose: 400.0 mg/kg/injection, schedule: Q01DX001 (ip), vehicle: Klucel (hydroxypropylcellulose) (HPC)): 87 % of control

CC(C)(O)c1cc(=O)n(-c2ccccc2)[nH]1
T/C [8]: 102 % of control | T/C [9]: 101 % of control | T/C [10]: 105 % of control

CC1(CCBr)C(=O)NC(=O)NC1=O
T/C [1]: 101 % of control | T/C [2]: 101 % of control | T/C [3]: 105 % of control

COC(=O)NN(C(=O)OC)C1CCC2C1c1ccccc1N(C(=O)OC)N2C(=O)OC (stereo not given)
T/C [4]: 108 % of control | T/C [5]: 113 % of control | T/C (dose: 240.0 mg/kg/injection, schedule: Q01DX005 (ip), vehicle: Klucel (hydroxypropylcellulose) (HPC)): 103 % of control

COc1ccc2c(c1)c(CO)c(CO)c[n+]2[O-]
T/C [11]: 100 % of control | T/C [12]: 96 % of control | T/C [13]: 102 % of control

COC(=O)CCC(=O)Nc1cc(Cl)c(Cl)cc1Cl
T/C [11]: 100 % of control | T/C [12]: 93 % of control | T/C [13]: 91 % of control

CCCC1CC[N-]CC1.CCCC1CC[N-]CC1.CCCC1CC[N-]CC1.CCCC1CC[N-]CC1.CS(C)=O.CS(C)=O.[Cl-].[Cl-].[Cl-].[Cl-].[Cl][Rh][Cl].[Rh+3]
T/C (dose: 3.13 mg/kg/injection, schedule: Q01DX009 (ip), vehicle: saline): 117 % of control | T/C (dose: 12.5 mg/kg/injection, schedule: Q01DX009 (ip), vehicle: saline with Tween-80): 123 % of control

COCc1ccnn1-c1ccccc1C
T/C [11]: 97 % of control | T/C [12]: 97 % of control | T/C [13]: 104 % of control

Nc1cc2c(c[n+](CCCBr)c3ccccc23)c2ccccc12
T/C (dose: 1.56 mg/kg/injection, schedule: Q04DX003 (ip), vehicle: other): 118 % of control | T/C (dose: 3.13 mg/kg/injection, schedule: Q04DX003 (ip), vehicle: other): 118 % of control | T/C (dose: 6.25 mg/kg/injection, schedule: Q04DX003 (ip), vehicle: other): 122 % of control

CC[As](CC)SC(CC[C@@H](C)C1CC[C@@]2(C)C3=C(CC[C@]12C)[C@@]1(C)CC[C@H](O)C(C)(C)[C@@H]1CC3)C(C)C (stereo not given in full)
T/C [8]: 87 % of control | T/C [9]: 92 % of control | T/C [10]: 95 % of control

O=C(Cc1ccccc1)N1CCc2cc3c(cc2C1Cc1cc2c(cc1Br)OCO2)OCO3 (stereo not given)
T/C (dose: 12.5 mg/kg/injection, schedule: Q01DX001 (ip), vehicle: saline + alcohol): 98 % of control | T/C (dose: 25.0 mg/kg/injection, schedule: Q01DX001 (ip), vehicle: saline + alcohol): 99 % of control | T/C (dose: 50.0 mg/kg/injection, schedule: Q01DX001 (ip), vehicle: saline + alcohol): 100 % of control

N#CC(=O)Nc1cccc(Cl)c1
T/C (dose: 15.0 mg/kg/injection, schedule: Q01DX005 (ip), vehicle: saline with Tween-80): 107 % of control | T/C (dose: 30.0 mg/kg/injection, schedule: Q01DX005 (ip), vehicle: saline with Tween-80): 103 % of control

CN(C)c1nc(OC2C(C(O)CO)OC3OC(C)(C)OC32)nc(N(C)C)n1 (stereo not given)
T/C (dose: 100.0 mg/kg/injection, schedule: Q04DX003 (ip), vehicle: saline with Tween-80): 105 % of control | T/C (dose: 200.0 mg/kg/injection, schedule: Q04DX003 (ip), vehicle: saline with Tween-80): 95 % of control | T/C (dose: 400.0 mg/kg/injection, schedule: Q04DX003 (ip), vehicle: saline with Tween-80): 92 % of control

NC(N)=NN=c1/c(=N\N=C(N)N)c2cc3ccccc3cc2/c1=N/N=C(N)N
T/C (dose: 6.25 mg/kg/injection, schedule: Q01DX001 (ip), vehicle: saline): 102 % of control | T/C (dose: 12.5 mg/kg/injection, schedule: Q01DX001 (ip), vehicle: saline): 96 % of control | T/C (dose: 25.0 mg/kg/injection, schedule: Q01DX001 (ip), vehicle: saline): 96 % of control and 97 % of control

O=c1[nH]cc(O)c(=O)[nH]1
T/C (dose: 167.0 mg/kg/injection, schedule: Q01DX009 (ip), vehicle: saline with Tween-80): 95 % of control | T/C (dose: 267.0 mg/kg/injection, schedule: Q01DX009 (ip), vehicle: saline with Tween-80): 113 % of control | T/C (dose: 400.0 mg/kg/injection, schedule: Q01DX009 (ip), vehicle: saline with Tween-80): 104 % of control | T/C (dose: 600.0 mg/kg/injection, schedule: Q01DX009 (ip), vehicle: saline with Tween-80): 109 % of control

BrCC[N+]12CC[N+](CCBr)(CC1)C2
T/C [6]: 114 % of control | T/C [7]: 116 % of control | T/C (dose: 50.0 mg/kg/injection, schedule: Q01DX009 (ip), vehicle: saline): 203 % of control and 110 % of control and 121 % of control | T/C (dose: 50.0 mg/kg/injection, schedule: Q04DX003 (ip), vehicle: water): 101 % of control | T/C (dose: 100.0 mg/kg/injection, schedule: Q01DX009 (ip), vehicle: saline): 202 % of control and 115 % of control and 118 % of control | T/C (dose: 100.0 mg/kg/injection, schedule: Q04DX003 (ip), vehicle: water): 108 % of control | T/C (dose: 200.0 mg/kg/injection, schedule: Q01DX009 (ip), vehicle: saline): 114 % of control | T/C (dose: 400.0 mg/kg/injection, schedule: Q04DX003 (ip), vehicle: water): 173 % of control
